Data published in patent US20260234146A1, “Use of Hypoxia-Inducible Factor-Prolyl Hydroxylase Inhibitor (HIF-PHI) in Rare Anemia” (Kind Pharmaceutical, priority 2023, published 2026).
Marks after values point to notes of the source that are not given here.

Key:
[1] = test system: MDS model mice; assay: Effect on MDS model mice (RBC, Hb, HCT); type: in vivo, C57 mice
Procedure: Throughout the experimental stage, animals were housed in cages in an animal room with 24-hour continuous central air conditioning, temperature set at 20-26° C., relative air humidity set at 40-70%, and a 12-hour light/dark cycle. All animals had free access to food and sterilized drinking water. The C57 mice used in the experiment contained three knocked-in genes in their genome: Vav1-Cre, LSL, and c-Myc(T58A/S62E). Only animals positive for all three genes were used in the experiment. Expression of Vav1-Cre can induce cleavage at the LSL site, thereby allowing tTA gene expression. After induction with Doxycycline, tTA can bind to promoter of the c-Myc(T58A/S62E) gene, driving its expression, so that the animals develop an MDS phenotype. When the mice reached approximately 8 weeks of age, modeling commenced. They were fed a special diet (containing 200 mg doxycycline per kg of feed) for 4 weeks. Mice were anesthetized on days 0, 14, and 28, and 70 μl of blood was collected from the orbit to measure RBC, Hb, and HCT levels, confirming successful establishment of the MDS model. Subsequently, the mice were randomly divided into 3 groups, with 10 mice per group: Vehicle control group (0.1 M meglumine), Comp-1 low-dose group (10 mg/kg), and Comp-1 high-dose group (30 mg/kg). The dosing or vehicle volume was 6.67 mL/kg. The dosing or vehicle frequency for each group was oral gavage three times per week (TIW) for 4 consecutive weeks. That is, from week 4 to week 8 constituted the treatment period. Mice were anesthetized 14 days (experimental week 6) and 28 days (experimental week 8) after the start of dosing, and 70 μl of blood was collected from the orbit. Collected blood samples were placed in heparin-anticoagulant tubes, and RBC, Hb, and HCT levels in the blood were measured. After blood collection at the final time point for each animal, the animals were euthanized, and corresponding organ tissues were collected for storage and potential future use. Detection instrument: Element HT5 Veterinary Hematology Analyzer; Supplier: HESKA. Data analysis was performed using GraphPad Prism 9.0.

[2] = test system: Hbb^d3th/d3th mice; assay: Effect on homozygous β-thalassemia mice (CBC analysis); type: in vivo; parameters: HGB Hemoglobin content: unit not given here
Procedure: Throughout the experimental stage, animals were housed in cages in an animal room with 24-hour continuous central air conditioning, temperature set at 20-26° C., relative air humidity set at 40-70%, and a 12-hour light/dark cycle. All animals had free access to food (irradiated sterile feed) and water (prepared by an ultrapure water system). The mouse strain used in the experiment was: Hbb^d3th/d3th mice; female and male, 9-15 weeks old, weighing 25-30 grams. The breeding method involved one male paired with two females. Male mice with the Hbb^d3th/d3th genotype, and female mice with the Hbb^d3th/+ genotype were selected. At one week of age, tissue DNA was extracted from toe clips of offspring. Subsequently, PCR amplification and agarose gel electrophoresis for band separation were used for genotyping. Before the experiment, secondary genotyping was performed on mice of appropriate age, and mice with no significant differences in body weight and appearance were selected as experimental animals. Vehicle 1 (0.1 M meglumine aqueous solution) was prepared by dissolving an appropriate amount of meglumine (0.586 g) in an appropriate amount of deionized water (30 mL) with stirring to prepare the vehicle. After preparation, the vehicle was aliquoted into daily doses and stored at 5±3° C. Before administration, it was stirred at room temperature for at least 10 minutes and stirred continuously during the dosing process.
Comp-1: The required amount of Comp-1 was weighed, completely dissolved in an appropriate volume of Vehicle 1, with stirring and sonicating to form a solution. After visually observing dissolution, vehicle was gradually added to reach the specified volume. Before daily dosing, the formulations (including vehicle) were removed from refrigerator and allowed to reach room temperature. Formulations were stirred at room temperature for at least 10 minutes before administration and stirred throughout the dosing process. The route of administration was oral gavage for all groups, with a dosing volume of 10 mL/kg for all groups, and a dosing frequency of daily for a total of 42 days.
On days 0, 15, 29, and 43 of dosing, 50 μl of blood was collected from orbit of mice, stored at 4° C., and allowed to return to room temperature before analysis. Samples were then gently mixed and added to pre-prepared diluent (blood:diluent=1:6). Data were obtained using the instrument's pre-dilution mode for detection. Data statistics were processed and analyzed using Microsoft Office Excel (Microsoft Corporation, version 2013, Redmond, WA, USA) and GraphPad Prism 7.0. Red blood cell counts and percentages were reported with two significant FIGURES. T-test analysis was used for comparisons of blood cell counts and percentages between groups and within groups at different time points.

[3] = test system: Townes SCD model mouse; assay: Effect on SCD anemia mice (RBC, Hb, HCT); type: in vivo
Procedure: Throughout the experimental stage, animals were housed in cages in an animal room with 24-hour continuous central air conditioning, temperature set at 20-26° C., relative air humidity set at 40-70%, and a 12-hour light/dark cycle. All animals had free access to food and sterilized drinking water. The animal strain was B6·Cg-Hbb^tm2(HBG1,HBB)Tow/Hbat^ml(HBA)Tow/ShmtJ mice, a Townes SCD model mouse where mouse endogenous hemoglobin is replaced by knocked-in human hemoglobin. Two weeks after birth, mice were ear-punched for identification, and the ear tissue was collected for PCR analysis to determine its genotype. Mice confirmed as B6·Cg-Hbb^tm2(HBG1,HBB)Tow/Hbat^ml(HBA)Tow/ShmtJ were grouped. […] Blood sampling was performed every other week. Mice showing symptoms of anemia were selected for dosing. Animals were randomly divided into groups, 6 animals per group: Vehicle control group (0.1 M meglumine aqueous solution; oral gavage; volume: 6.67 mL/kg), Comp-1 group (30 mpk; oral gavage; volume: 6.67 mL/kg), and EPO group (50 U/30 g body weight; SC injection; MyBioSource, cat. #: MBS650094, erythropoietin alpha). Dosing was administered three times a week (TIW) for 4 consecutive weeks. On days 14 and 28 of dosing, 70 μL of blood was collected from orbit. Collected blood samples were placed in heparin-anticoagulant tubes. 15 μL of the blood sample from the anticoagulant tube was aspirated and added to an Element HT5 Veterinary Hematology Analyzer. RBC, Hb, and HCT in the blood were measured according to the instrument's operating instructions. Data analysis was performed using GraphPad Prism 9.0. […]

[4] = 10 mg/kg group, Before dosing Week 4
[5] = 10 mg/kg group, Pre-modeling Week 0
[6] = 10 mg/kg oral TIW, After 2 weeks of dosing Week 6
[7] = 10 mg/kg oral TIW, After 4 weeks of dosing Week 8
[8] = 30 mg/kg group, Before dosing Week 4
[9] = 30 mg/kg group, Pre-modeling Week 0
[10] = 30 mg/kg oral TIW, After 2 weeks of dosing Week 6
[11] = 30 mg/kg oral TIW, After 4 weeks of dosing Week 8
[12] = 30 mg/kg group, Before dosing Week 0
[13] = 30 mg/kg oral TIW, After 2 weeks of dosing Week 2
[14] = 30 mg/kg oral TIW, After 4 weeks of dosing Week 4
[15] = 30 mpk oral gavage TIW group, baseline, average of six mice
[16] = 30 mpk oral gavage TIW, end of the four-week experiment, average of five mice

`O=C(O)CNC(=O)C1=C(O)C2(CCCC2)n2c(ccc2-c2ccccc2)C1=O` [Comp-1, (6′-hydroxy-8′-oxo-3′-phenyl-8′H-spiro[cyclopentane-1,5′-indolizine]-7′-carbonyl)glycine] was tested, and the “HCT Hematocrit” value [1, 4] was 28.12%, the “Hb Hemoglobin content” value [1, 4] was 9.52 g/dL and the “RBC Red Blood Cell Count” value [1, 4] was 6.03 M/μL. The “HCT Hematocrit” value [1, 5] was 43.35%, the “Hb Hemoglobin content” value [1, 5] was 14.90 g/dL and the “RBC Red Blood Cell Count” value [1, 5] was 9.00 M/μL. The “HCT Hematocrit” value [1, 6] was 34.36%, the “Hb Hemoglobin content” value [1, 6] was 10.97 g/dL and the “RBC Red Blood Cell Count” value [1, 6] was 6.33 M/μL. The “HCT Hematocrit” value [1, 7] was 37.52%, the “Hb Hemoglobin content” value [1, 7] was 11.77 g/dL and the “RBC Red Blood Cell Count” value [1, 7] was 7.17 M/μL. The “HCT Hematocrit” value [1, 8] was 28.01%, the “Hb Hemoglobin content” value [1, 8] was 9.54 g/dL and the “RBC Red Blood Cell Count” value [1, 8] was 5.90 M/μL. For the same molecule, the “HCT Hematocrit” value [1, 9] was 43.32%, the “Hb Hemoglobin content” value [1, 9] was 14.37 g/dL and the “RBC Red Blood Cell Count” value [1, 9] was 9.01 M/μL. For the same molecule, the “HCT Hematocrit” value [1, 10] was 43.13%, the “Hb Hemoglobin content” value [1, 10] was 13.56 g/dL and the “RBC Red Blood Cell Count” value [1, 10] was 7.11 M/μL. The “HCT Hematocrit” value [1, 11] was 47.41%, the “Hb Hemoglobin content” value [1, 11] was 14.91 g/dL and the “RBC Red Blood Cell Count” value [1, 11] was 8.46 M/μL. For the same molecule, the “HCT Hematocrit” value ([2]; 5 mpk group, Day 0 (pre-dose)) was 27.58%, the “HGB Hemoglobin content” value ([2]; 5 mpk group, Day 0 (pre-dose)) was 74.60 and the “RBC Red Blood Cell Count” value ([2]; 5 mpk group, Day 0 (pre-dose)) was 7.90 10^12/L. The “HCT Hematocrit” value ([2]; 5 mpk oral daily, Day 15) was 31.16# %, the “HGB Hemoglobin content” value ([2]; 5 mpk oral daily, Day 15) was 81.20 and the “RBC Red Blood Cell Count” value ([2]; 5 mpk oral daily, Day 15) was 8.35 10^12/L. For the same molecule, the “HCT Hematocrit” value ([2]; 5 mpk oral daily, Day 29) was 32.10## %, the “HGB Hemoglobin content” value ([2]; 5 mpk oral daily, Day 29) was 83.00 and the “RBC Red Blood Cell Count” value ([2]; 5 mpk oral daily, Day 29) was 8.59 10^12/L. For the same molecule, the “HCT Hematocrit” value ([2]; 5 mpk oral daily, Day 43) was 31.04## %, the “HGB Hemoglobin content” value ([2]; 5 mpk oral daily, Day 43) was 80.20 and the “RBC Red Blood Cell Count” value ([2]; 5 mpk oral daily, Day 43) was 8.58 10^12/L. For the same molecule, the “HCT Hematocrit” value ([2]; 10 mpk group, Day 0 (pre-dose)) was 26.20%, the “HGB Hemoglobin content” value ([2]; 10 mpk group, Day 0 (pre-dose)) was 74.80 and the “RBC Red Blood Cell Count” value ([2]; 10 mpk group, Day 0 (pre-dose)) was 7.90 10^12/L. For the same molecule, the “HCT Hematocrit” value ([2]; 10 mpk oral daily, Day 15) was 31.92## %, the “HGB Hemoglobin content” value ([2]; 10 mpk oral daily, Day 15) was 83.60 and the “RBC Red Blood Cell Count” value ([2]; 10 mpk oral daily, Day 15) was 8.60## 10^12/L. The “HCT Hematocrit” value ([2]; 10 mpk oral daily, Day 29) was 33.02## %, the “HGB Hemoglobin content” value ([2]; 10 mpk oral daily, Day 29) was 88.04 and the “RBC Red Blood Cell Count” value ([2]; 10 mpk oral daily, Day 29) was 9.15# 10^12/L. For the same molecule, the “HCT Hematocrit” value ([2]; 10 mpk oral daily, Day 43) was 33.36### %, the “HGB Hemoglobin content” value ([2]; 10 mpk oral daily, Day 43) was 89.40 and the “RBC Red Blood Cell Count” value ([2]; 10 mpk oral daily, Day 43) was 9.30## 10^12/L. The “HCT Hematocrit” value ([2]; 15 mpk group, Day 0 (pre-dose)) was 27.48%, the “HGB Hemoglobin content” value ([2]; 15 mpk group, Day 0 (pre-dose)) was 75.00 and the “RBC Red Blood Cell Count” value ([2]; 15 mpk group, Day 0 (pre-dose)) was 7.77 10^12/L. For the same molecule, the “HCT Hematocrit” value ([2]; 15 mpk oral daily, Day 15) was 34.50## %, the “HGB Hemoglobin content” value ([2]; 15 mpk oral daily, Day 15) was 90.17 and the “RBC Red Blood Cell Count” value ([2]; 15 mpk oral daily, Day 15) was 8.95# 10^12/L. For the same molecule, the “HCT Hematocrit” value ([2]; 15 mpk oral daily, Day 29) was 36.13### %, the “HGB Hemoglobin content” value ([2]; 15 mpk oral daily, Day 29) was 97.5 and the “RBC Red Blood Cell Count” value ([2]; 15 mpk oral daily, Day 29) was 9.72#### 10^12/L. For the same molecule, the “HCT Hematocrit” value ([2]; 15 mpk oral daily, Day 43) was 36.10#### %, the “HGB Hemoglobin content” value ([2]; 15 mpk oral daily, Day 43) was 94.83 and the “RBC Red Blood Cell Count” value ([2]; 15 mpk oral daily, Day 43) was 9.45#### 10^12/L. The “Arithmetic mean of HCT hematocrit” value [3, 12] was 27.20%, the “Arithmetic mean of HGB hemoglobin content” value [3, 12] was 8.47 g/dL and the “Arithmetic mean of RBC red blood cell count” value [3, 12] was 6.34 M/μL. For the same molecule, the “Arithmetic mean of HCT hematocrit” value [3, 13] was 40.05%, the “Arithmetic mean of HGB hemoglobin content” value [3, 13] was 11.63 g/dL and the “Arithmetic mean of RBC red blood cell count” value [3, 13] was 8.88 M/μL. For the same molecule, the “Arithmetic mean of HCT hematocrit” value [3, 14] was 41.45%, the “Arithmetic mean of HGB hemoglobin content” value [3, 14] was 12.10 g/dL and the “Arithmetic mean of RBC red blood cell count” value [3, 14] was 9.09 M/μL.

`O=C(O)CNC(=O)C1C(=O)N(C2CCCCC2)C(=O)N(C2CCCCC2)C1=O` [Daprodustat, reference compound] gave an HCT [3, 15] of 31.8%, a Hb [3, 15] of 9.1 g/dL and an RBC [3, 15] of 6.14 M/μL. The HCT [3, 16] was 35.9%, the Hb [3, 16] was 10.9 g/dL and the RBC [3, 16] was 7.54 M/μL. For the same molecule, the Mortality ([3]; 30 mpk, oral gavage, TIW, after two weeks of dosing) was “One mouse in the Daprodustat group including six mice in total died”.
